Laboratory results reported in patent US20200362303A1, “MAINTENANCE-AND-AMPLIFICATION METHOD AND DIFFERENTIATION INDUCTION METHOD FOR PRIMORDIAL GERM CELLS/PRIMORDIAL GERM CELL-LIKE CELLS” (KYOTO UNIVERSITY, priority 2017, published 2020).

Tests used:
cultured PGCLC = assay: Immunofluorescence analysis of STRA8, SCP3, DDX4 in cultured PGCLC; format: cell-based, mouse; settings: cultured PGCLC, c9; BMP4, 5, 7 combined with RA; BMS493 with BMP2; LDN193189 with RA and BMP2
Method: (§1) The PGC/PGCLC expansion medium was constituted of 10% KSR, 2.5% FBS, 0.1 mM NEAA, 1 mM sodium pyruvate, 2 mM L-glutamine, 0.1 mM 2-mercaptoethanol, 100 U/ml penicillin, 0.1 mg/ml […] streptomycin, […] forskolin, and 10 μM rolipram. The entire medium was changed every 2 days from c3. Cytokines/compounds for induction of female fate were provided from c3 to the end of culture. RA and BMP concentrations used were 100 nM and 300 ng/ml, respectively, unless otherwise specified. Brightfield and fluorescence images were captured using an IX73 inverted microscope (Olympus).
Immunofluorescence (IF) analysis was performed as described previously (Hayashi et al, 2012). The following primary antibodies were used: chicken anti-GFP (ab13970; Abeam), rabbit anti-DDX4 (ab13840; Abeam), mouse anti-DDX4 (ab27591; Abeam), rabbit anti-DAZL (ab34129; Abeam), goat anti-DAZL (sc-27333; Santa Cruz), rabbit anti-STRA8 (ab49602; Abeam), mouse anti-SYCP3 (ab97672; Abeam) and rabbit anti-TEX14 (ab41733; Abeam)IgG. The following secondary antibodies were used: Alexa Fluor 488-goat anti-mouse or chicken IgG; Alexa Fluor 568-goat anti-rabbit IgG and Alexa Fluor 633-goat anti-mouse, anti-chicken IgG; Alexa Fluor 488-donkey anti-mouse IgG; Alexa Fluor 568-donkey anti-rabbit IgG and Alexa Fluor 633-donkey anti-goat IgG. IF images were acquired using a confocal microscope [FV1000 (Olympus) or LSM780 (Zeiss)].

PGCLC = assay: CsA or FK506 alone at various concentrations on PGCLC proliferation (fold difference d7/d1); format: cell-based, mouse; settings: 10, 5, 1, 0 μM, in place of FR10
BV (+) d4 PGCLCs = assay: Compound library screening for PGCLC proliferation (BV fluorescence by cell analyzer); format: cell-based, mouse; settings: 10 μM; day 7 of culture
Method: d4 PGCLC was seeded by FACS on m220-5 feeders in 96-well plates and BV fluorescence was monitored by cell analyzer (Cellavista; SynenTec). Fluorescence photograph for BV was taken by Cellavista cell analyzer with the following settings: 10× objectives; exposure time: 140 μsec; gain: 4×; binning: 4×4; excitation: 500/24 nm; emission: 542/27 nm. BV fluorescence was detected using the following algorithm/attribute parameters: sensitivity: 10; region merging: 200; min. granule intensity: 50; well edge distance: 200; contrast: 1; size: 3,000; intensity: 255; roughness: 500; granularity: 100; granule intensity: 255; granule count: 10,000; longishness: 100; compactness: 1. The value of “cell nucleus” was used for the detection of BV fluorescence.
The compound library was screened at concentrations of 10 μM and 1 μM. […] 200 BV (+) d4 PGCLCs induced from BDF1-2 ESC were seeded in the wells of a 96-well plate, and BV fluorescence was measured on the Cellavista cell analyzer on day 1 of culture (c1), c3, c5 and c7. The value of “cell nucleus” was used for the detection of BV fluorescence. […] For each compound, the fold difference in BV fluorescence between c1 and c7 was calculated for each compound and compounds with a fold difference value exceeding 3SD of the mean of the negative control were identified as those that potentiate PGCLC proliferation.

BMP signaling pathway = assay: BMP signaling in PGCLC: pSMAD1/5/8 (Western blot) and Id1/Id2 expression; format: cell-based, mouse; settings: PGCLC stimulated by RA and BMP2
Method: For Western blot analysis, 5×10^4 cells were lysed in SDS sample buffer [62.5 mM Tris-HCl (pH 6.8), 2% SDS, 10% glycerol, 0.025% bromophenol blue and 0.14 M-mercaptoethanol] at 90° C. for 5 min. For detection of phosphorylated (p)SMAD1/5/8, the cells were treated with PhosSTOP (Roche) and complete protease inhibitor cocktail (Roche) before lysis. The extracted protein was separated by SuperSep Ace 10-20% gel (Wako), blotted on iBlot2 PVDF transfer membrane (Thermo Fisher) by iBlot2 dry blotting system (Thermo Fisher), and incubated with the primary antibody: rabbit anti-STRA8 IgG (ab49405; Abeam), mouse anti-α tubulin (T9026; Sigma-Aldrich), rabbit anti-pSMAD1/5/8 IgG (#9511; CST), or rabbit anti-SMAD1 IgG (#97435 CST). Primary antibodies were detected with goat anti-rabbit IgG or sheep anti-mouse IgG conjugated to HRP (A0545, M8642; Sigma-Aldrich), followed by Chemi-Lumi One Super (Nacalai). Chemiluminescence image acquisition and analysis was performed using the Fusion Solo system and Fusion-Capt software (M & S Instruments).
(§2) qPCR was performed using CFX384 (Bio-Rad) and Power SYBR Green (ABI, Foster City, Calif.) according to the manufacturer's instructions. Template cDNA was prepared as described in the “Transcriptome analysis” section and the primers used are listed in Primers.

[1] = tested on: female germ cell fate in embryos; assay: Administration of LDN193189 to pregnant females, germ cell fate at E14.5; format: in vivo, mouse
Method: To administer LDN-193189 to pregnant females (ICR), LDN-193189 (sm10559; Sigma-Aldrich) is dissolved in sterile water, and 2.5 mg LDN-193189 was injected intraperitoneally every 12 hours from E11 to E14 per kg body weight.
as §2

d4 PGCLC [2] = assay: Measurement of intracellular cAMP concentration (cAMPGlo Max assay); format: cell-based, mouse; settings: pretreated 30 min at room temperature
Method: The intracellular cAMP concentration was measured using cAMPGlo Max assay kit (Promega) according to the manufacturer's instructions. A standard curve using purified cAMP was prepared by calculating the Δrelative light unit (ΔRLU) (RLU [0 nM]-RLU [X nM]). For each sample, 1×10^4 d4 PGCLC was pretreated with forskolin and/or rolipram for 30 min at room temperature and the ΔRLU (RLU [untreated sample-RLU [treated sample]) was calculated. An increase in the intracellular cAMP level due to chemical treatments was inferred from the cAMP standard curve. Three biological replicates were analyzed for each sample.

d4 PGCLC [3] = assay: Expansion culture of d4 PGCLC on m220-5 feeder (cell number fold increase); format: cell-based, mouse; settings: 10 μM alone; BVSC BDF1-2; SCF, m220 feeder
Method: Since the m220-5 feeder treated with MMC was vulnerable to forskolin and rolipram, m220-5 cells were subcultured 3 times with both forskolin and rolipram each at 10 μM and adapted to these compounds before MMC treatment (1-2 μg/ml for 2 hr). d4 PGCLC or E9.5 PGC(BDF1×Stella-EGFP) was selected by FACS, and the cells were seeded on m220-5 cells in GMEM medium containing 10% KSR, 0.1 mM NEAA, 1 mM sodium pyruvate, 0.1 mM 2-mercaptoethanol, 100 U/ml penicillin, 0.1 mg/ml streptomycin, 2 mM L-glutamine, 2.5% FCS, 100 ng/ml SCF, 10 μM forskolin, and 10 μM rolipram. Half of the culture medium was changed every 2 days.
Expansion culture of PGC/PGCLC to investigate the combined effect of cyclosporin A (CsA) was performed as in Example [I], except that 5 μM CsA was added to the medium in addition to 10 μM forskolin and 10 μM loripram (FR10).

[4] = tested on: PGCLC induced from BVSCDT ESC(XY); assay: Screening for factors inducing female germ cell fate: DT and BV expression by FACS at c7; format: cell-based, mouse; settings: added from c3, read at c7; RA 100 nM, cytokines 500 ng/ml; BMPs in combination with RA
Method: as §1
The preparation of d4/c0 PGCLC for FACS is described in “ESC culture/induction and PGCLC induction/culture”. To isolate germ cells in vivo, fetal gonads of BVSC, VR or SG mice were cut and processed for FACS according to the procedure described for d4/c0 PGCLC. Culture PGCLC was also prepared by the same method except that, after dissociation, the cells were washed with 0.1% BSA-DMEM containing 100 μg/ml DNase (Sigma-Aldrich), lysed DNA from dead cells was digested to prevent the formation of cell/debris clumps. Fluorescent activity of BV/SG, SC, or DT/VR was detected with FITC, Horizon V500 or PE-Texas Red channels, respectively. FACS data was analyzed using FlowJo or FACS Diva software package.
In the signal inhibitory experiment, LDN193189 (#04-0074; Stemgent) and BMS493 (B6688; Sigma-Aldrich) dissolved in DMSO were used as ALK2/3 inhibitor and RAR inhibitor, respectively.

Molecule: CC1(C)CC=C(C#Cc2ccccc2)c2cc(/C=C/c3ccc(C(=O)O)cc3)ccc21 [BMS493]
- induction of VR/DDX4 and SCP3 (+) cells (meiotic entry) (cultured PGCLC): abolished upregulation of VR/DDX4 as well as induction of SCP3

Molecule: C=CC[C@@H]1/C=C(\C)C[C@H](C)C[C@H](OC)[C@H]2O[C@@](O)(C(=O)C(=O)N3CCCC[C@H]3C(=O)O[C@H](/C(C)=C/[C@@H]3CC[C@@H](O)[C@H](OC)C3)[C@H](C)[C@@H](O)CC1=O)[C@H](C)C[C@@H]2OC [FK506, tacrolimus]
- proliferative effect on PGCLCs (PGCLC): did not have a proliferative effect

Molecule: COc1cccc(Nc2c(C(N)=O)cnc3c(C)cc(S(=O)(=O)c4cccc(C(=O)N(C)C)c4)cc23)c1 [GSK256066]
- colony formation of BV(+) cells (BV (+) d4 PGCLCs): formation of plural colonies with unique flat morphology

Molecule: c1ccc2c(-c3cnn4cc(-c5ccc(N6CCNCC6)cc5)cnc34)ccnc2c1 [LDN193189]
- pSMAD1/5/8 and Id1, Id2 expression (BMP signaling pathway): blocked such effects
- progression to female germ cell fate ([1]; every 12 hr from E11.5 to E14.0, read at E14.5): caused a significant impairment of progression to female germ cell fate
- expression of key genes of late PGC/female germ cell development (qPCR) ([1]; female VR(+) cells at E14.5): up-regulated key genes in late PGC/female germplasm development
- male germ cell development (qPCR) ([1]; male VR(+) cells at E14.5): unaffected
- induction of VR/DDX4 and SCP3 (+) cells (meiotic entry) (cultured PGCLC): blocked RA- and BMP2-induced VR activation and meiotic entry in a dose-dependent manner

Molecule: C=C[C@@]1(C)CC(=O)[C@]2(O)[C@@]3(C)[C@@H](O)CCC(C)(C)[C@@H]3[C@H](O)[C@H](OC(C)=O)[C@@]2(C)O1 [forskolin]
- cAMP concentration in PGCLC (d4 PGCLC [2]): about 4 nM/1×10^4 d4 PGCLC

Molecule: COc1ccc(C2CNC(=O)C2)cc1OC1CCCC1 (centres unmarked) [rolipram]
- effect on proliferation of d4 PGCLC (compound alone) (d4 PGCLC [3]): relatively mild
- cAMP concentration in PGCLC (d4 PGCLC [2]): about 4 nM/1×10^4 d4 PGCLC

B1: BMP4: bone morphogenetic protein 4 cytokine (R&D Systems) (protein, UniProt P12644 293-408, looked up)
Bone morphogenetic protein 4: SPKHHSQRARKKNKNCRRHSLYVDFSDVGWNDWIVAPPGYQAFYCHGDCPFPLADHLNSTNHAIVQTLVNSVNSSIPKACCVPTELSAISMLYLDEYDKVVLKNYQEMVVEGCGCR
- induction of VR/DDX4 and SCP3 (+) cells (meiotic entry) (cultured PGCLC): able to induce VR/DDX4 and SCP3(+) cells
- DT and BV expression in BV (+) cells [4]: strongly activated DT and simultaneously down-regulated BV

B2: BMP5: bone morphogenetic protein 5 cytokine (R&D Systems) (protein, UniProt P22003 317-454, looked up)
Bone morphogenetic protein 5: AANKRKNQNRNKSSSHQDSSRMSSVGDYNTSEQKQACKKHELYVSFRDLGWQDWIIAPEGYAAFYCDGECSFPLNAHMNATNHAIVQTLVHLMFPDHVPKPCCAPTKLNAISVLYFDDSSNVILKKYRNMVVRSCGCH
- induction of VR/DDX4 and SCP3 (+) cells (meiotic entry) (cultured PGCLC): able to induce VR/DDX4 and SCP3(+) cells
- DT and BV expression in BV (+) cells [4]: strongly activated DT and simultaneously down-regulated BV

B3: BMP7: bone morphogenetic protein 7 cytokine (R&D Systems) (protein, UniProt P18075 293-431, looked up)
Bone morphogenetic protein 7: STGSKQRSQNRSKTPKNQEALRMANVAENSSSDQRQACKKHELYVSFRDLGWQDWIIAPEGYAAYYCEGECAFPLNSYMNATNHAIVQTLVHFINPETVPKPCCAPTQLNAISVLYFDDSSNVILKKYRNMVVRACGCH
- induction of VR/DDX4 and SCP3 (+) cells (meiotic entry) (cultured PGCLC): able to induce VR/DDX4 and SCP3(+) cells
- DT and BV expression in BV (+) cells [4]: strongly activated DT and simultaneously down-regulated BV
